According to patent US10016382B2, “Method for decreasing skeletal muscle damage and/or oxidative stress in mammals” (LONZA INC., priority 2014, dated 2018):

How the values were obtained:
Labrador Retrievers = test: Oxygen consumption on treadmill (Oxymax open-circuit calorimeter), Example 2 part three; type: in vivo, dog
Protocol: Sixteen Labrador Retrievers ranging in age from 1.5 to 3 years were fed low carnitine basal diets with and without added L-carnitine for a 37 week period that included part one and two of the study. Eight (4 male and 4 female) of the test L-carnitine dogs were each fed 3.75 g sugar and 250 mg of L-carnitine, while the other eight dogs (4 male and 4 female) were fed only 4 g of sugar each day for the experimental period. The sixteen test dogs were fed the same diet for parts one, two, and three of the study. During part three of the study, the 16 test dogs were exclusively exercised on the industry sized canine treadmill. Initial Oxymax data was developed for each of the test dogs at various times and speeds in order to determine appropriate speeds on the treadmill required to achieve maximum VO2 concentration. The dogs were run for 15 minutes at 6.5 mph to determine VO2 max. The 16 test dogs were then ran at 50% VO2 max (equivalent to 4 mph) on the treadmill for 30 minutes to determine total energy expenditure (heat production). The system used to acquire information on volume of oxygen consumption and energy expenditure was an Open-Circuit calorimeter, which employed air from the surrounding environment. A mask specially designed for dogs was used to recover the gas sample and ventilate the dog. A small sample was drawn for gas analysis and dried to assure that the readings were made in a sample that was not under the influence of water vapor air exiting the chamber. The O2 and CO2 sensors were connected to software, and instant values of O2 and CO2 were measured. The 16 test dogs (8 L-carnitine dogs, 4 male and 4 female, and 8 control dogs, 4 male and 4 female) were exercised at a warm up speed of 2 mph for 5 minutes prior to running at VO2 max for 15 minutes at 6.5 mph. The next week, the test dogs ran again at a warm up speed of 2 mph for 5 minutes and then at 50% VO2 max for 30 minutes at 4 mph. The statistical analysis for gas exchange was analyzed by a factorial design 2×2 (2 genders and 2 diet treatments) and 2×2×2 (2 genders, 2 diets, 2 speeds) at p-value<0.05. The variable maximum oxygen consumption (Max VO2) was the highest amount of oxygen consumption during the exercise time. The mean oxygen consumption (Mean VO2) was the average amount of oxygen consumption during the exercise time. Oxygen consumption was reported on a per L/kg BW/h basis.

[1] = Body composition by DEXA scan, Example 2 part one; type: in vivo, dog; conditions: for Lean mass (LM) change / Total tissue mass change: over 14 week study
Text: Each dog was also scanned for body composition as described in Example 1 just prior to the beginning of the study and twenty-four hours following the final endurance run.

[2] = Ex.2 part three, 250 mg/d, females, 6.5 mph for 15 min (VO2 max)
[3] = Ex.2 part three, 250 mg/d, females, 50% VO2 max (4 mph, 30 min)
[4] = Ex.2 part three, 250 mg/d, females, average of combined speeds (4 mph and 6.5 mph)
[5] = combined speeds 4.0 and 6.5 (50% VO2 Max and VO2 Max), diet main effect, both genders
[6] = combined speeds 4.0 and 6.5 (50% VO2 Max and VO2 Max), female dogs
[7] = combined speeds 4.0 and 6.5 (50% VO2 Max and VO2 Max), male dogs
[8] = treadmill speed 4 for 30 min (50% VO2 Max), diet main effect, both genders
[9] = treadmill speed 4 for 30 min (50% VO2 Max), female dogs
[10] = treadmill speed 4 for 30 min (50% VO2 Max), male dogs
[11] = treadmill speed 6.5 for 15 min (VO2 Max), diet main effect, both genders
[12] = treadmill speed 6.5 for 15 min (VO2 Max), female dogs
[13] = treadmill speed 6.5 for 15 min (VO2 Max), male dogs
[14] = Ex.2 part one, 250 mg/d, both sexes
[15] = Ex.2 part one, 250 mg/d, females

In the case of `C[N+](C)(C)C[C@H](O)CC(=O)[O-]` [L-carnitine], the “Max VO2 consumption” value (Labrador Retrievers; [2]) is reported as 60.8 mL/min/kg, the “Mean VO2” value (Labrador Retrievers; [2]) is reported as 3.11 L/kg/h and the “Max VO2 consumption” value (Labrador Retrievers; [3]) is reported as 42 mL/min/kg. For the same compound, the “Mean VO2” value (Labrador Retrievers; [3]) was 1.99 L/kg/h, the “Maximum VO2 consumption” value (Labrador Retrievers; [4]) was 50.3 mL/min/kg and the “Mean VO2 consumption” value (Labrador Retrievers; [4]) was 41.7 mL/min/kg. For the same compound, the “Max VO2” value (Labrador Retrievers; [5]) was 2.80 L/kg/h, the “Mean VO2” value (Labrador Retrievers; [5]) was 2.40 L/kg/h and the “Max VO2” value (Labrador Retrievers; [6]) was 3.02 a L/Kg/h. For the same compound, the “Mean VO2” value (Labrador Retrievers; [6]) was 2.50 a L/Kg/h, the “Max VO2” value (Labrador Retrievers; [7]) was 2.57 ab L/Kg/h and the “Mean VO2” value (Labrador Retrievers; [7]) was 2.31 ab L/Kg/h. The “Max VO2” value (Labrador Retrievers; [8]) was 2.39 L/kg/h, the “Mean VO2” value (Labrador Retrievers; [8]) was 1.98 L/kg/h and the “Max VO2” value (Labrador Retrievers; [9]) was 2.52 L/kg/h. For the same compound, the “Mean VO2” value (Labrador Retrievers; [9]) was 1.99 L/kg/h, the “Max VO2” value (Labrador Retrievers; [10]) was 2.26 L/kg/h and the “Mean VO2” value (Labrador Retrievers; [10]) was 1.97 L/kg/h. For the same compound, the “Max VO2” value (Labrador Retrievers; [11]) was 3.27 L/kg/h, the “Mean VO2” value (Labrador Retrievers; [11]) was 2.89 L/kg/h and the “Max VO2” value (Labrador Retrievers; [12]) was 3.65 L/kg/h. The “Mean VO2” value (Labrador Retrievers; [12]) was 3.11 L/kg/h, the “Max VO2” value (Labrador Retrievers; [13]) was 2.89 L/kg/h and the “Mean VO2” value (Labrador Retrievers; [13]) was 2.66 L/kg/h. The “Increase in % fat mass” value ([1]; Ex.2 part one, 250 mg/d, females, vs 3.01% control females (p=0.3893)) was 1.58%, the “Lean mass (LM) change” value [1, 14] was 0.68 kg and the “Total tissue mass change” value [1, 14] was 0.74 kg. For the same compound, the “Lean mass (LM) change” value [1, 15] was 0.45 kg, the “Total tissue mass change” value [1, 15] was 0.78 kg and the “Lean mass (LM) change” value ([1]; Ex.2 part one, 250 mg/d, males) was 0.91 kg. The “Total tissue mass change” value ([1]; Ex.2 part one, 250 mg/d, males) was 0.70 kg, the “% Fat” value ([1]; Female, Change) was 1.58 ± 1.29% and the BMC ([1]; Female, Change) was 9.54 ± 6.72 g. For the same compound, the BMD ([1]; Female, Change) was 0.0029 ± 0.005 g/cm2, the Fat ([1]; Female, Change) was 0.56 ± 0.35 kg and the “Lean Mass” value ([1]; Female, Change) was 0.45 ± 0.21 kg. The “Total Tissue” value ([1]; Female, Change) was 0.78 ± 0.27 kg, the “% Fat” value ([1]; Female, Final) was 18.43 ± 1.75% and the BMC ([1]; Female, Final) was 716.5 ± 30.63 g. For the same compound, the BMD ([1]; Female, Final) was 0.58 ± 0.01 g/cm2, the Fat ([1]; Female, Final) was 4.62 ± 0.57 kg and the “Lean Mass” value ([1]; Female, Final) was 19.95 ± 0.65 kg. For the same compound, the “Total Tissue” value ([1]; Female, Final) was 24.34 ± 0.94 kg, the “% Fat” value ([1]; Female, Initial) was 16.85 ± 2.1% and the BMC ([1]; Female, Initial) was 706.96 ± 30.19 g. For the same compound, the BMD ([1]; Female, Initial) was 0.58 ± 0.01 g/cm2, the Fat ([1]; Female, Initial) was 4.07 ± 0.59 kg and the “Lean Mass” value ([1]; Female, Initial) was 19.49 ± 0.69 kg. The “Total Tissue” value ([1]; Female, Initial) was 23.56 ± 0.86 kg, the “% Fat” value ([1]; Male, Change) was 0.49 ± 0.61% and the BMC ([1]; Male, Change) was 6.54 ± 6.57 g. The BMD ([1]; Male, Change) was 0.011 ± 0.005 g/cm2, the Fat ([1]; Male, Change) was 0.22 ± 0.2 kg and the “Lean Mass” value ([1]; Male, Change) was 0.91 ± 0.22 kg. The “Total Tissue” value ([1]; Male, Change) was 0.7 ± 0.19 kg, the “% Fat” value ([1]; Male, Final) was 14.81 ± 1.05% and the BMC ([1]; Male, Final) was 927.39 ± 25.32 g. The BMD ([1]; Male, Final) was 0.65 ± 0.01 g/cm2, the Fat ([1]; Male, Final) was 4.56 ± 0.36 kg and the “Lean Mass” value ([1]; Male, Final) was 26.54 ± 0.71 kg. For the same compound, the “Total Tissue” value ([1]; Male, Final) was 30.67 ± 0.72 kg, the “% Fat” value ([1]; Male, Initial) was 14.31 ± 1.16% and the BMC ([1]; Male, Initial) was 920.86 ± 25.96 g. The BMD ([1]; Male, Initial) was 0.64 ± 0.01 g/cm2, the Fat ([1]; Male, Initial) was 4.34 ± 0.42 kg and the “Lean Mass” value ([1]; Male, Initial) was 25.63 ± 0.58 kg. The “Total Tissue” value ([1]; Male, Initial) was 29.97 ± 0.75 kg, the “% Fat” value ([1]; all dogs, Change) was 1.04 ± 0.71% and the BMC ([1]; all dogs, Change) was 8.04 ± 4.62 g. For the same compound, the BMD ([1]; all dogs, Change) was 0.007 ± 0.003 g/cm2, the Fat ([1]; all dogs, Change) was 0.39 ± 0.2 kg and the “Lean Mass” value ([1]; all dogs, Change) was 0.68 ± 0.16 kg. The “Total Tissue” value ([1]; all dogs, Change) was 0.74 ± 0.16 kg, the “% Fat” value ([1]; all dogs, Final) was 16.62 ± 1.06% and the BMC ([1]; all dogs, Final) was 821.95 ± 28.14 g. For the same compound, the BMD ([1]; all dogs, Final) was 0.61 ± 0.01 g/cm2, the Fat ([1]; all dogs, Final) was 4.59 ± 0.33 kg and the “Lean Mass” value ([1]; all dogs, Final) was 23.24 ± 0.79 kg. The “Total Tissue” value ([1]; all dogs, Final) was 27.5 ± 0.84 kg, the “% Fat” value ([1]; all dogs, Initial) was 15.58 ± 1.2% and the BMC ([1]; all dogs, Initial) was 813.91 ± 28.38 g. The BMD ([1]; all dogs, Initial) was 0.608 ± 0.01 g/cm2, the Fat ([1]; all dogs, Initial) was 4.2 ± 0.35 kg and the “Lean Mass” value ([1]; all dogs, Initial) was 22.56 ± 0.74 kg. The “Total Tissue” value ([1]; all dogs, Initial) was 26.76 ± 0.83 kg.
